From patent US10336693B2 (priority 2015, dated 2019)

Experiments:
[1] = tested on: neuraminidase (NA) of Influenza A/Korea/2785/2009 (H275Y mutation); format: biochemical, Influenza A virus
[2] = tested on: virus showing oseltamivir resistance due to the H275Y mutation; format: binding, influenza virus
[3] = tested on: neuraminidase site of oseltamivir-resistant virus (mutant type); set-up: species or system influenza virus

Row | Structure (SMILES) | inhibition of NA activity of mutant-type virus compared with wild-type virus [1] | affinity for H275Y oseltamivir-resistant virus relative to oseltamivir sensitive virus [2] | affinity for mutant type relative to wild type [3]
1 | CCC(CC)O[C@@H]1C=C(C(=O)OCCCCCCN)C[C@H](N)[C@H]1NC(C)=O [oseltamivir hexylamine] | inhibited the NA activity of the mutant-type virus (H275Y mutation) more significantly than the NA activity of the wild-type virus | about 1000 fold | –
2 | CCC(CC)O[C@@H]1C=C(C(=O)OCCCCCCS)C[C@H](N)[C@H]1NC(C)=O [oseltamivir hexylthiol] | inhibited the NA activity of the mutant-type virus (H275Y mutation) more significantly than the NA activity of the wild-type virus | about 1000 fold | about 250 fold
